Experimental data reported in US10144914B2, “Modified substrates for protection of peptide-immobilized surfaces from gamma radiation degradation” (Corning Incorporated, priority 2010, dated 2018).

Experiments:
[1] = Solubility of individual coating components in water, ethanol and 1M HCl; format: physicochemical
Experimental: iii) Preparation of Antioxidant/Stabilizer Formulations: Prior to preparation of the antioxidant/stabilizer coating formulation, solubility of the individual components of each formulation was determined in water, ethanol and 1M HCl. Majority of the components were soluble in water, except for two in ethanol and one in 1M HCl. Both n-propyl gallate and Trolox were soluble in ethanol and only L-Tryptophan in 1M HCl. For each individual coating mixture formulation (i.e. Coatings 1-8), in a separate 25 mL glass vial containing the different components individually weighed out based on their respective wt % (see Table 1, below), Coating 1: 22 ml of solvent was used to make the coating solution (i.e. 20 mL of DI/water+2 ml of ethanol); Coating 2: 20 mL of DI/water added to vial; Coating 3: 18 mL of DI/water added+2 mL of ethanol to vial; Coating 4: 20 mL of DI/water+2 mL of ethanol; Coating 5: 16 mL of DI/water+4 mL of 1M HCl; Coating 6: 12 mL of DI/water+2 mL of ethanol+4 mL of 1M HCl; Coating 7: 20 mL of DI/water; Coating 8: 10 ml of DI/water+4 ml of ethanol+5 ml of 1M HCl.

H7 cells [2] = experiment: Crystal violet staining of H7 cells on gamma sterilized VN peptide acrylate surface, amino acid blocking; format: cell-based, human; settings: gamma irradiated; for H7 attachment and growth (crystal violet staining): used as blocking reagent after peptide conjugation
Source text: (§1) Acrylate coating: 2-Hydroxyethyl methacryalte, 2-carboxyethyl acrylate, tetra(ethylene glycol) dimethacrylate, Darocur 1173, Irgacure 819 were mixed with ratio of 80:20:3:3:0.1 and dissolved in ethanol at total monomer concentration of 5%. The obtained formulation was spin coated on oxygen plasma treated Zeonor film. After ethanol evaporated, the (meth)acrylate coating was cured using Xenon pulsed UV curing system in nitrogen purged box. Then, the coated films were in-mold-labeled into T-75 Zeonor flasks and used for conjugation directly.
(§2) Peptide conjugation: The acrylate surface was activated for an hour with 1:1 EDC: NHS in DMF. After aspiration of the activation solution, the surface was treated for an hour with 1 mM of the VN peptide (Ac-[…]) (SEQ ID NO:1) in phosphate buffer (pH7.4). After aspiration of the peptide solution, the surface was treated for an hour with 1M ethanolamine adjusted to pH 8.0-8.5 with hydrochloric acid or 0.1M of L-methionine methyl ester hydrochloride adjusted to pH 8 with sodium hydroxide based on experimental design. All reactions were performed at room temperature.
Sterilization: Flasks were packed with nitrogen and desiccant in aluminum pouch for Gamma sterilization. The irradiation dose was 11-18 kGy. Positive control VN-peptide acrylate sample was sanitized with 70% ethanol.
Stem cell culture: H7 cells were sub-cultured into T-75 fasks with desired peptide acrylate surfaces or Matrigel™ coated surfaces (positive control) at the density of 100,000 cell/cm^2 in X-VIVO 10+GF medium. Microscopic examination of cell and colony morphology was performed at day 3 or day 4. Cell number was assessed at day 4 or day 5 by harvesting with collagenase IV/EDTA treatment followed by cell counting with automated cell number/viability analyzer, Vi-Cell (Beckman Coulter). For methionine methyl ester treated surface, a step of rinsing with DPBS was applied to remove amino acid extractables before cell culture.

H7 cells [3] = experiment: H7 cell count and morphology on gamma sterilized VN peptide acrylate surface after amino acid absorption; format: cell-based, human; settings: 0.1M absorbed 1 hr, gamma 11-18 kGy
Source text: as §1, §2
Amino acid absorption: Peptide conjugated T-75 flask was filled with 10 mL of 0.1M of L-methionine methyl ester hydrochloride adjusted to pH 8 with sodium hydroxide. The flasks were lay flat so that the peptide surfaces were submerged under the amino acid solution and were incubated for 1 hr. This allows positive charged amino acid to be absorbed into negative charged peptide-acrylate coating. Then the amino acid solution was removed and the flasks were dried in vacuum for overnight before packing and sterilization. […]
Stem cell culture: H7 cells were sub-cultured into T-75 fasks with desired peptide acrylate surfaces or Matrigel™ coated surfaces (positive control) at the density of 100,000 cell/cm^2 in X-VIVO 10+GF medium. […] Cell number was assessed at day 4 or day 5 by harvesting with collagenase IV/EDTA treatment followed by cell counting with automated cell number/viability analyzer, Vi-Cell (Beckman Coulter). […]

[4] = Solubility of VN peptide in ethanol; format: physicochemical; settings: 100% 200-proof ethanol, 0.5 mM or 1 mM, after agitation
Experimental: iii) Preparation of VN peptide coating solution: A 10 mL 0.5 mM or 1 mM VN coating solution was prepared by weighing out their corresponding masses and dissolving using a 100% 200-proof ethanol as the solvent.

N[C@@H](Cc1c[nH]c2ccccc12)C(=O)O [L-Tryptophan]
solubility in 1M HCl ([1]; 1M HCl): soluble

Cc1c(C)c2c(c(C)c1O)CCC(C)(C(=O)O)O2 (stereo not shown) [Trolox]
solubility in ethanol [1]: soluble

NCCO [ethanolamine, reference compound]
H7 attachment and growth (crystal violet staining) (H7 cells [2]): there were not cells attached or grew

COC(=O)[C@@H](N)CCSC.Cl [methionine methyl ester, L-methionine methyl ester hydrochloride]
bioactivity of VN-peptide acrylate surface after Gamma irradiation (H7 cells [3]): maintained
stem cell morphology versus positive control (H7 cells [3]): comparable
cell number after 4 days of culture versus ETOH ctr and Matrigel (H7 cells [3]; day 4): comparable
H7 attachment and growth (crystal violet staining) (H7 cells [2]): still support good H7 attachment and growth
cell morphology versus ethanol sanitized surfaces (H7 cells [2]; used as blocking reagent): still not able to much those on ethanol sanitized surfaces

CCCOC(=O)c1cc(O)c(O)c(O)c1 [n-propyl gallate]
solubility in ethanol [1]: soluble

Ac-KGGPQVTRGDVFTMP-NH2 (C-terminus assumed) [VN peptide]
solubility in the ethanol solvent [4]: partial to almost completely soluble
